19 molecules from ChEMBL document CHEMBL3091350, “Synthesis and evaluation of the antimalarial, anticancer, and caspase 3 activities of tetraoxane dimers” (Bioorg Med Chem, 2013) can be followed below.

One data set relates to KB. As to the kind of experiment: Cytotoxicity against human KB cells assessed as cell viability after 24 hrs by MTT assay. The data set is classed as functional, cell-based. On the technique in general: Tetrazolium dyes change colour on reduction, which living cells bring about.
For data set [1], the system named is Plasmodium falciparum. As to the kind of experiment: Antimalarial activity against chloroquine-sensitive Plasmodium falciparum 3D7 assessed as parasite growth inhibition after 48 hrs by SYBR green-1 dye-based fluorescence assay. It is filed as functional, organism-based. Conditions: 3D7, 48 h.
Data set [2] in a line: Therapeutic index, ratio of IC50 for human KB cells to IC50 for chloroquine-resistant Plasmodium falciparum K1. It is filed as cell-based. Conditions: read-out: Ratio IC50.
Data set [3] relates to HL-60. As to the kind of experiment: Cytotoxicity against human HL60 cells assessed as cell viability after 24 hrs by MTT assay. Conditions: HL-60, 24 h. The data set is classed as functional, cell-based.
The subject of data set [4] is Plasmodium falciparum. Put plainly: Antimalarial activity against chloroquine-resistant Plasmodium falciparum K1 assessed as parasite growth inhibition after 48 hrs by SYBR green-1 dye-based fluorescence assay. It is filed as functional, organism-based. Conditions: K1, 48 h.
Data set [5] in a line: Cytotoxicity against human HT29-AK cells assessed as cell viability after 24 hrs by MTT assay. It is filed as functional, cell-based.
The test system of data set [6] is Plasmodium falciparum. As to the kind of experiment: Antimalarial activity against chloroquine-sensitive Plasmodium falciparum 3D7. The data set is classed as functional, organism-based.
Data set [7] concerns HL-60. As to the kind of experiment: Induction of apoptosis in human HL60 cells assessed as activation of caspase-3 activity at 0.2 to 0.6 uM after 24 hrs by flow cytometric analysis. The data set is classed as functional, cell-based.
The test system of data set [8] is HL-60. Put plainly: Induction of apoptosis in human HL60 cells assessed as activation of caspase-3 activity at 9.4 to 28.2 uM after 24 hrs by flow cytometric analysis. The data set is classed as functional, cell-based. Background: A flow cytometer gives signals particle by particle.
Data set [9] has as its system Plasmodium berghei. As to the kind of experiment: Antimalarial activity against Plasmodium berghei ANKA infected in mouse assessed as inhibition of parasitemia at 10 mg/kg, po administered for 3 days post-infection measured on day 4 by Giemsa staining relative to control. The data set is classed as functional.
Data set [10] has as its system Plasmodium berghei. Put plainly: Antimalarial activity against Plasmodium berghei ANKA infected in po dosed mouse assessed as inhibition of parasitemia administered for 3 days post-infection measured on day 4 by Giemsa staining. The data set is classed as functional.
The test system of data set [11] is Plasmodium berghei. Put plainly: Antimalarial activity against Plasmodium berghei ANKA infected in mouse assessed as inhibition of parasitemia at 3 mg/kg, po administered for 3 days post-infection measured on day 4 by Giemsa staining relative to control. The data set is classed as functional.
Data set [12] concerns Plasmodium berghei. As to the kind of experiment: Antimalarial activity against Plasmodium berghei ANKA infected in mouse assessed as inhibition of parasitemia at 1 mg/kg, po administered for 3 days post-infection measured on day 4 by Giemsa staining relative to control. The data set is classed as functional.
Data set [13] has as its system Plasmodium berghei. As to the kind of experiment: Antimalarial activity against Plasmodium berghei ANKA infected in mouse assessed as inhibition of parasitemia at 30 mg/kg, po administered for 3 days post-infection measured on day 4 by Giemsa staining relative to control. It is filed as functional.
In data set [14] the test system is HL-60. As to the kind of experiment: Induction of apoptosis in human HL60 cells assessed as activation of caspase-3 activity at 10.1 to 30.3 uM after 24 hrs by flow cytometric analysis. The data set is classed as functional, cell-based.

Active and inactive are the calls of the source. The calls are words filed in the database; no cut-off is given here.

On to `CCN(CC)CCCC(C)Nc1ccnc2cc(Cl)ccc12` (stereo unspecified) [CHLOROQUINE], for which the IC50 (in general, the midpoint of a concentration-inhibition curve) in the data set with KB came to 97700 nM.
For `O=C(CC1CCC2(CC1)OOC1(CCCCC1)OO2)NCc1cccc(CNC(=O)CC2CCC3(CC2)OOC2(CCCCC2)OO3)c1`, the IC50 in the data set on Plasmodium falciparum [1] stood at 38.6 nM.
Turning to `CC1(CCC(=O)NCc2cccc(CNC(=O)CCC3(C)OOC4(CCCCC4)OO3)c2)OOC2(CCCCC2)OO1` (stereo unspecified), the IC50 was 63100 nM in the data set on KB; 34300 nM in the data set with HL-60 [3]; 136 nM in the data set on Plasmodium falciparum [4]; 32800 nM in data set [5]; 416 nM in the data set on Plasmodium falciparum [1]. Besides, the selectivity ratio in data set [2] worked out at 452.
The molecule `CN1CCN(C2CCN(C(=O)CC3CCC4(CC3)OOC3(OO4)C4CC5CC(C4)CC3C5)CC2)CC1` (stereo unspecified) had an IC50 with Plasmodium falciparum [6] of 0.9 nM.
With `C[C@H]1[C@@H](O)O[C@@H]2O[C@@]3(C)CC[C@H]4[C@H](C)CC[C@@H]1[C@@]24OO3` [ARTENIMOL], the result in the data set on HL-60 [7] was Active. Moreover, the IC50 in the data set with HL-60 [3] worked out at 400 nM; in [5], 66100 nM; in the data set with Plasmodium falciparum [1], 3.5 nM.
As to `O=C(CC1CCC2(CC1)OOC1(OO2)C2CC3CC(C2)CC1C3)NCc1cccc(CNC(=O)CC2CCC3(CC2)OOC2(OO3)C3CC4CC(C3)CC2C4)c1` (stereo unspecified), the outcome with HL-60 [8] was Active. Further, the IC50 in the data set with HL-60 [3] was found to be 18800 nM; in data set [5], 90200 nM; in the data set with Plasmodium falciparum [1], 4 nM.
For `CC1(CCC(=O)Nc2cccc(N)c2)OOC2(CCCCC2)OO1`, the IC50 with HL-60 [3] came out at 31200 nM; in data set [5], 75800 nM; in the data set on Plasmodium falciparum [1], 102 nM.
Consider `O=C(CC1CCC2(CC1)OOC1(OO2)C2CC3CC(C2)CC1C3)NCCCN1CCN(CCCNC(=O)CC2CCC3(CC2)OOC2(OO3)C3CC4CC(C3)CC2C4)CC1` (stereo unspecified), for which the inhibition in vivo – broadly, the percentage by which the read-out fell short of the control – at 10 mg/kg in the data set with Plasmodium berghei [9] worked out at 46.2%. Also, in the data set with Plasmodium berghei [10], the ED50 (as a rule, the midpoint of the dose-response relation) came to 7.7 mg/kg. Further, in the data set with Plasmodium berghei [11], the inhibition in vivo at 3 mg/kg turned out to be 43.2%. Also, the inhibition in vivo at 1 mg/kg with Plasmodium berghei [12] was 36.1%. Besides, the inhibition in vivo at 30 mg/kg in the data set with Plasmodium berghei [13] was 64.5%. Besides, the IC50 in the data set with Plasmodium falciparum [1] came out at 3.5 nM.
Take `O=C(CC1CCC2(CC1)OOC1(CCCCC1)OO2)NCCCCNC(=O)CC1CCC2(CC1)OOC1(CCCCC1)OO2`: in the data set on Plasmodium falciparum [1], the IC50 was 28.9 nM.
For `O=C(CC1CCC2(CC1)OOC1(OO2)C2CC3CC(C2)CC1C3)NCCNC(=O)CC1CCC2(CC1)OOC1(OO2)C2CC3CC(C2)CC1C3` (stereo unspecified), the IC50 was determined as 62700 nM in the data set on KB, 8.9 nM in the data set on Plasmodium falciparum [4] and 16.9 nM in the data set on Plasmodium falciparum [1]. The selectivity ratio in data set [2] is 7040.
Take `O=C(CC1CCC2(CC1)OOC1(OO2)C2CC3CC(C2)CC1C3)Nc1ccc(NC(=O)CC2CCC3(CC2)OOC2(OO3)C3CC4CC(C3)CC2C4)cc1` (stereo unspecified): the IC50 in the data set with HL-60 [3] was over 100000 nM; in [5], 77600 nM; in the data set on Plasmodium falciparum [1], 58.4 nM.
Turning to `C[C@H]1[C@H](OC(=O)CCC(=O)O)O[C@@H]2O[C@@]3(C)CC[C@H]4[C@H](C)CC[C@@H]1[C@@]24OO3` [ARTESUNATE], the inhibition in vivo at 10 mg/kg in the data set on Plasmodium berghei [9] turned out to be 95.2%. The ED50 with Plasmodium berghei [10] was found to be 1.6 mg/kg. Besides, the inhibition in vivo at 3 mg/kg in the data set with Plasmodium berghei [11] stood at 62.4%. For the same molecule, in the data set on Plasmodium berghei [12], the inhibition in vivo at 1 mg/kg stood at 38.5%. In the data set with Plasmodium berghei [13], the inhibition in vivo at 30 mg/kg was 99.7%. Further, the IC50 in the data set on HL-60 [3] stood at 2000 nM; in [5], 38800 nM; in the data set with Plasmodium falciparum [1] it was 1.6 nM.
As for `O=C(CC1CCC2(CC1)OOC1(OO2)C2CC3CC(C2)CC1C3)NCCCNC(=O)CC1CCC2(CC1)OOC1(OO2)C2CC3CC(C2)CC1C3` (stereo unspecified), the IC50 is 62100 nM with KB; 20200 nM in the data set on HL-60 [3]; 24.6 nM in the data set on Plasmodium falciparum [4]; 22900 nM in data set [5]; 4.7 nM in the data set with Plasmodium falciparum [1]. In data set [2], the selectivity ratio worked out at 2530. For the same molecule, the result in the data set on HL-60 [14] was Active.
In the case of `CC1(CCC(=O)NCCCN2CCN(CCCNC(=O)CCC3(C)OOC4(CCCCC4)OO3)CC2)OOC2(CCCCC2)OO1` (stereo unspecified), in the data set with Plasmodium berghei [9], the inhibition in vivo at 10 mg/kg amounted to 21.4%. Besides, the IC50 in the data set on KB amounted to 25000 nM; with Plasmodium falciparum [4], 612 nM; in the data set on Plasmodium falciparum [1] it was 47.5 nM. For the same molecule, the selectivity ratio in data set [2] amounted to 40.8. The ED50 in the data set with Plasmodium berghei [10] was over 30 mg/kg. Further, the inhibition in vivo at 3 mg/kg in the data set with Plasmodium berghei [11] is 22.3%. Besides, the inhibition in vivo at 1 mg/kg in the data set on Plasmodium berghei [12] is 2.1%. For the same molecule, in the data set with Plasmodium berghei [13], the inhibition in vivo at 30 mg/kg worked out at 33.2%.
`O=C(CC1CCC2(CC1)OOC1(OO2)C2CC3CC(C2)CC1C3)NCCCCNC(=O)CC1CCC2(CC1)OOC1(OO2)C2CC3CC(C2)CC1C3` (stereo unspecified): the inhibition in vivo at 10 mg/kg in the data set with Plasmodium berghei [9] was found to be 49.6%. Moreover, the IC50 in the data set on KB turned out to be 5040 nM; with Plasmodium falciparum [4] it was 2.7 nM; with Plasmodium falciparum [1] it was 11.2 nM. Also, the selectivity ratio in [2] worked out at 1870. Besides, the ED50 with Plasmodium berghei [10] is 16.1 mg/kg. Further, the inhibition in vivo at 3 mg/kg with Plasmodium berghei [11] was found to be 27.5%. In addition, the inhibition in vivo at 1 mg/kg in the data set with Plasmodium berghei [12] was found to be 22.1%. Further, the inhibition in vivo at 30 mg/kg with Plasmodium berghei [13] came out at 54.8%.
Turning to `COc1cc([C@@H]2c3cc4c(cc3[C@H](O)[C@H]3COC(=O)[C@H]23)OCO4)cc(OC)c1OC` [PODOFILOX], the IC50 in the data set with KB came out at 11.7 nM.
In the case of `O=C(CC1CCC2(CC1)OOC1(CCCCC1)OO2)NCCCNC(=O)CC1CCC2(CC1)OOC1(CCCCC1)OO2`, the IC50 with Plasmodium falciparum [1] was 21.3 nM.
`O=C(CC1CCC2(CC1)OOC1(CCCCC1)OO2)NCCCN1CCN(CCCNC(=O)CC2CCC3(CC2)OOC2(CCCCC2)OO3)CC1`: the inhibition in vivo at 10 mg/kg in the data set on Plasmodium berghei [9] stood at 54.3%. For the same molecule, in the data set with Plasmodium berghei [10], the ED50 was 6.4 mg/kg. Moreover, in the data set on Plasmodium berghei [11], the inhibition in vivo at 3 mg/kg was found to be 46.1%. Besides, the inhibition in vivo at 1 mg/kg with Plasmodium berghei [12] is 29.9%. Further, the inhibition in vivo at 30 mg/kg with Plasmodium berghei [13] was found to be 63.9%. In the data set with Plasmodium falciparum [1], the IC50 worked out at 47.1 nM.
`O=C(CC1CCC2(CC1)OOC1(OO2)C2CC3CC(C2)CC1C3)Nc1cccc(NC(=O)CC2CCC3(CC2)OOC2(OO3)C3CC4CC(C3)CC2C4)c1` (stereo unspecified): the IC50 with KB was 134000 nM; in the data set on HL-60 [3], over 100000 nM; in the data set on Plasmodium falciparum [4], 102 nM; in data set [5], 92500 nM; in the data set on Plasmodium falciparum [1], 57.2 nM. Further, in data set [2], the selectivity ratio worked out at 1320.
